Experimental data as given in ChEMBL document CHEMBL5303573, “Mapping human microbiome drug metabolism by gut bacteria and their genes” (Nature, 2019).

Columns and labels:
[1] = The drug is tested on Alistipes indistinctus strain: DSM22520 for biotransformation. The drug concentrations were measured before and after a 12-h incubation by liquid-chromatography-coupled mass spectrometry (LC–MS); conditions: 2 µM
[2] = The drug is tested on Coprococcus comes strain: ATCC27758 for biotransformation. The drug concentrations were measured before and after a 12-h incubation by liquid-chromatography-coupled mass spectrometry (LC–MS); assay type: ADME; design: dose 2 uM, timepoint 0 vs 12 hours; conditions: 2 µM
[3] = limosilactobacillus reuteri cf48-3a, 12 h, 2 µM
Description: The drug is tested on Lactobacillus reuteri CF48-3A strain: BEI HM-102 for biotransformation. The drug concentrations were measured before and after a 12-h incubation by liquid-chromatography-coupled mass spectrometry (LC–MS)

[4] = The drug is tested on Bacteroides ovatus strain: ATCC8483 for biotransformation. The drug concentrations were measured before and after a 12-h incubation by liquid-chromatography-coupled mass spectrometry (LC–MS); conditions: 2 µM
[5] = The drug is tested on Bacteroides finegoldii strain: DSM17565 for biotransformation. The drug concentrations were measured before and after a 12-h incubation by liquid-chromatography-coupled mass spectrometry (LC–MS); conditions: 2 µM
[6] = The drug is tested on Bacteroides uniformis strain: ATCC8492 for biotransformation. The drug concentrations were measured before and after a 12-h incubation by liquid-chromatography-coupled mass spectrometry (LC–MS); conditions: 2 µM
[7] = The drug is tested on Dorea formicigenerans strain: ATCC27755 for biotransformation. The drug concentrations were measured before and after a 12-h incubation by liquid-chromatography-coupled mass spectrometry (LC–MS); conditions: 2 µM
[8] = The drug is tested on Bifidobacterium ruminantium strain: fecal isolate for biotransformation. The drug concentrations were measured before and after a 12-h incubation by liquid-chromatography-coupled mass spectrometry (LC–MS); conditions: 2 µM
[9] = The drug is tested on Parabacteroides merdae strain: ATCC43184 for biotransformation. The drug concentrations were measured before and after a 12-h incubation by liquid-chromatography-coupled mass spectrometry (LC–MS); conditions: 2 µM
[10] = The drug is tested on Anaerotruncus colihominis strain: DSM17241 for biotransformation. The drug concentrations were measured before and after a 12-h incubation by liquid-chromatography-coupled mass spectrometry (LC–MS); conditions: 2 µM
[11] = The drug is tested on Clostridium sporogenes strain: ATCC15579 for biotransformation. The drug concentrations were measured before and after a 12-h incubation by liquid-chromatography-coupled mass spectrometry (LC–MS); conditions: 2 µM
[12] = The drug is tested on Odoribacter splanchnicus strain: fecal isolate for biotransformation. The drug concentrations were measured before and after a 12-h incubation by liquid-chromatography-coupled mass spectrometry (LC–MS); conditions: 2 µM
[13] = The drug is tested on Bacteroides coprophilus strain: DSM18228 for biotransformation. The drug concentrations were measured before and after a 12-h incubation by liquid-chromatography-coupled mass spectrometry (LC–MS); conditions: 2 µM
[14] = The drug is tested on Bacteroides caccae strain: ATCC43185 for biotransformation. The drug concentrations were measured before and after a 12-h incubation by liquid-chromatography-coupled mass spectrometry (LC–MS); conditions: 2 µM
[15] = The drug is tested on Collinsella aerofaciens strain: ATCC25986 for biotransformation. The drug concentrations were measured before and after a 12-h incubation by liquid-chromatography-coupled mass spectrometry (LC–MS); conditions: 2 µM
[16] = bacteroides thetaiotaomicron, 12 h, 2 µM
Description: The drug is tested on Bacteroides thetaiotaomicron strain: 7330 for biotransformation. The drug concentrations were measured before and after a 12-h incubation by liquid-chromatography-coupled mass spectrometry (LC–MS)

[17] = The drug is tested on Ruminococcus torques strain: ATCC27756 for biotransformation. The drug concentrations were measured before and after a 12-h incubation by liquid-chromatography-coupled mass spectrometry (LC–MS); assay type: ADME; design: dose 2 uM, timepoint 0 vs 12 hours; conditions: 2 µM
[18] = The drug is tested on Enterococcus faecalis strain: V583 for biotransformation. The drug concentrations were measured before and after a 12-h incubation by liquid-chromatography-coupled mass spectrometry (LC–MS); conditions: 2 µM
[19] = The drug is tested on Enterobacter cancerogenus strain: ATCC35316 for biotransformation. The drug concentrations were measured before and after a 12-h incubation by liquid-chromatography-coupled mass spectrometry (LC–MS); conditions: 2 µM

| Structure (SMILES) | Bacterial Biotransformation [1] | Bacterial Biotransformation [2] | Bacterial Biotransformation [3] | Bacterial Biotransformation [4] | Bacterial Biotransformation [5] | Bacterial Biotransformation [6] | Bacterial Biotransformation [7] | Bacterial Biotransformation [8] | Bacterial Biotransformation [9] | Bacterial Biotransformation [10] | Bacterial Biotransformation [11] | Bacterial Biotransformation [12] | Bacterial Biotransformation [13] | Bacterial Biotransformation [14] | Bacterial Biotransformation [15] | Bacterial Biotransformation [16] | Bacterial Biotransformation [17] | Bacterial Biotransformation [18] | Bacterial Biotransformation [19] |
| --- | --- | --- | --- | --- | --- | --- | --- | --- | --- | --- | --- | --- | --- | --- | --- | --- | --- | --- | --- |
| CCOc1ccc(NC(C)=O)cc1 [PHENACETIN] | Compound NOT metabolized | Compound NOT metabolized | Compound NOT metabolized | Compound NOT metabolized | Compound NOT metabolized | Compound NOT metabolized | Compound NOT metabolized | Compound NOT metabolized | Compound NOT metabolized | Compound NOT metabolized | Compound NOT metabolized | Compound NOT metabolized | Compound NOT metabolized | Compound NOT metabolized | Compound NOT metabolized | Compound NOT metabolized | Compound NOT metabolized | Compound NOT metabolized |  |
| COc1cc2nc(N3CCN(C(=O)c4ccco4)CC3)nc(N)c2cc1OC [PRAZOSIN] |  | Compound NOT metabolized | Compound NOT metabolized | Compound NOT metabolized | Compound NOT metabolized | Compound NOT metabolized | Compound NOT metabolized | Compound NOT metabolized | Compound NOT metabolized | Compound NOT metabolized |  | Compound NOT metabolized | Compound NOT metabolized | Compound NOT metabolized | Compound NOT metabolized | Compound NOT metabolized | Compound NOT metabolized | Compound NOT metabolized | Compound NOT metabolized |
| CC(C)(C)NC[C@H](O)COc1nsnc1N1CCOCC1.O=C(O)/C=C\C(=O)O [TIMOLOL MALEATE] |  | Compound NOT metabolized | Compound NOT metabolized | Compound NOT metabolized | Compound NOT metabolized | Compound NOT metabolized | Compound NOT metabolized | Compound NOT metabolized | Compound NOT metabolized | Compound NOT metabolized | Compound NOT metabolized | Compound NOT metabolized | Compound NOT metabolized | Compound NOT metabolized | Compound NOT metabolized |  | Compound NOT metabolized | Compound NOT metabolized | Compound NOT metabolized |
| CC[C@@]1(O)C(=O)OCc2c1cc1n(c2=O)Cc2cc3c(CN(C)C)c(O)ccc3nc2-1 [TOPOTECAN] |  | Compound NOT metabolized | Compound NOT metabolized | Compound NOT metabolized | Compound NOT metabolized | Compound NOT metabolized | Compound NOT metabolized | Compound NOT metabolized | Compound NOT metabolized | Compound NOT metabolized | Compound NOT metabolized | Compound NOT metabolized | Compound NOT metabolized | Compound NOT metabolized | Compound NOT metabolized | Compound NOT metabolized | Compound NOT metabolized |  | Compound NOT metabolized |
| O=c1n(CCCN2CCN(c3cccc(Cl)c3)CC2)nc2ccccn12 [TRAZODONE] |  | Compound NOT metabolized | Compound NOT metabolized | Compound NOT metabolized | Compound NOT metabolized |  | Compound NOT metabolized | Compound NOT metabolized | Compound NOT metabolized | Compound NOT metabolized | Compound NOT metabolized |  | Compound NOT metabolized | Compound NOT metabolized | Compound NOT metabolized | Compound NOT metabolized | Compound NOT metabolized | Compound NOT metabolized | Compound NOT metabolized |

Second part, the compound after the results:

| Bacterial Biotransformation [1] | Bacterial Biotransformation [2] | Bacterial Biotransformation [3] | Bacterial Biotransformation [4] | Bacterial Biotransformation [5] | Bacterial Biotransformation [6] | Bacterial Biotransformation [7] | Bacterial Biotransformation [8] | Bacterial Biotransformation [9] | Bacterial Biotransformation [10] | Bacterial Biotransformation [11] | Bacterial Biotransformation [12] | Bacterial Biotransformation [13] | Bacterial Biotransformation [14] | Bacterial Biotransformation [15] | Bacterial Biotransformation [16] | Bacterial Biotransformation [17] | Bacterial Biotransformation [18] | Bacterial Biotransformation [19] | Structure (SMILES) |
| --- | --- | --- | --- | --- | --- | --- | --- | --- | --- | --- | --- | --- | --- | --- | --- | --- | --- | --- | --- |
| Compound NOT metabolized |  | Compound metabolized | Compound metabolized | Compound NOT metabolized | Compound NOT metabolized | Compound NOT metabolized |  | Compound NOT metabolized | Compound NOT metabolized |  | Compound metabolized | Compound metabolized | Compound NOT metabolized |  | Compound NOT metabolized | Compound NOT metabolized | Compound NOT metabolized | Compound NOT metabolized | CCCc1nn(C)c2c(=O)[nH]c(-c3cc(S(=O)(=O)N4CCN(C)CC4)ccc3OCC)nc12.O=C(O)CC(O)(CC(=O)O)C(=O)O [SILDENAFIL CITRATE] |
| Compound NOT metabolized | Compound NOT metabolized | Compound NOT metabolized | Compound NOT metabolized | Compound NOT metabolized | Compound NOT metabolized | Compound NOT metabolized |  | Compound NOT metabolized | Compound NOT metabolized | Compound NOT metabolized |  |  | Compound NOT metabolized | Compound NOT metabolized |  | Compound NOT metabolized | Compound NOT metabolized | Compound NOT metabolized | CCN1CCCC1CNC(=O)c1cc(S(N)(=O)=O)ccc1OC (stereo unspecified) [SULPIRIDE] |
| Compound NOT metabolized | Compound NOT metabolized | Compound NOT metabolized | Compound NOT metabolized | Compound NOT metabolized |  | Compound NOT metabolized | Compound NOT metabolized | Compound NOT metabolized | Compound NOT metabolized | Compound NOT metabolized | Compound NOT metabolized | Compound NOT metabolized | Compound NOT metabolized | Compound NOT metabolized | Compound NOT metabolized |  | Compound NOT metabolized |  | CCOC(=O)C1=C[C@]2(CC)CCCN3CCc4c(n1c1ccccc41)[C@@H]32 [VINPOCETINE] |
